Data published in publication PMC6681021 (Pharmaceutics, 2019).
Several values for one entry are separate records, joined by “and”; a condition that tells them apart may be missing. Identical values can stand only once. Like-named read-outs stand apart in the source and are kept apart here.

Legend:
[1] = Gastric and intestinal first-pass effect: intraportal infusion, intraduodenal and intragastric instillation in rats; assay type: in vivo, Sprague-Dawley rats
Experimental: Rats were fasted overnight with free access to water. Cannulae were inserted into the carotid artery and the cecal vein [13, 14]. […] All sample collection and processing procedures were identical to those described above.
(§1) Pharmacokinetic parameters, including AUC, apparent volume of distribution at steady state (Vss), mean residence time (MRT), and time-averaged total body (CL), renal (CLR), and nonrenal (CLNR) clearances, were calculated by noncompartmental analysis (WinNonlin, Pharsight Corporation, Mountain View, CA, USA) using standard methods. AUC values were calculated using the trapezoidal rule–extrapolation method. The peak plasma concentration (Cmax) and time to reach Cmax (Tmax) were obtained directly from the experimental data. The mean values of clearance, terminal half-life, and Vss were calculated using the harmonic mean method.

[2] = Pharmacokinetics after oral administration of tofacitinib to rats; assay type: in vivo, Sprague-Dawley rats; settings: for CL renal / Cmax / Tmax / bioavailability: male, Sprague-Dawley; for CL renal / Cmax / Tmax / bioavailability / AUC: rat; for CL renal: plasma and urine; for Cmax / Tmax / bioavailability / AUC: plasma; for bioavailability: dose-normalized oral AUC / AUC of 10 mg/kg iv, read-out: F (bioavailability); for Dose-normalized AUC: normalized to 10 mg/kg; for AUC: male Sprague-Dawley rats
Experimental: The pretreatment and surgical procedures for oral and intravenous administration were similar to those described previously. For oral administration, the rats were fasted overnight with free access to water. The rats were anesthetized with ketamine (200 mg/kg), and their carotid arteries were cannulated using polyethylene tubing (Clay Adams, Parsippany, NJ, USA) for blood sampling. For intravenous administration, the rats were anesthetized with ketamine (200 mg/kg), and their jugular veins and carotid arteries were cannulated for drug administration and blood sampling, respectively. Rats were allowed to recover for 4–5 h after surgical procedures. The rats were not restrained during the experimental period and had free access to water and food.
Blood samples (110–220 μL) were collected via the carotid artery at times 0 (prior to drug administration), 5, 15, 30, 45, 60, 90, 120, 180, 240, 360, 480, 600, and 720 min. Urine and gastrointestinal tract samples were also obtained over 24 h were processed as described above for the corresponding samples collected after intravenous administration.
Two microliters of hydrocortisone (5 mg/mL) and 40 μL of 20% ammonia solution were added to 100 μL aliquots of biological samples and vortex-mixed for 30 s using a vortex mixer. Each solution was extracted with 1.5 mL of ethyl acetate by centrifugation at 12,000 rpm for 5 min. The organic layer was collected and dried (Dry Thermobath, Eyela, Tokyo, Japan) under a gentle stream of nitrogen gas at 40 °C. The samples were reconstituted in 130 μL of 20% acetonitrile, and 50 μL of resuspended samples were analyzed by HPLC [12].
The mobile phase consisted of a 69.5:30.5 (v/v) mixture of 10 mM ammonium acetate buffer (pH 5.0) and acetonitrile, respectively, with a flow rate of 1.0 mL/min. Column effluent was monitored by a UV detector at 287 nm.
as §1

[3] = Hepatic first-pass effect: 30-min intravenous vs intraportal infusion in rats; assay type: in vivo, Sprague-Dawley rats; settings: for AUC / CL renal / MRT / clearance / half-life / Vd: Sprague-Dawley, rat, plasma; for half-life: read-out: Terminal half-life; for Vd: read-out: Vss
Experimental: The carotid artery and jugular vein were handled as described previously. In addition, the vein from the cecum was cannulated and the cannula was pushed forward about 4 cm toward the liver through the portal vein to minimize the damage from blood flowing into the portal vein [13, 14]. […] Blood samples were collected from the carotid artery at times 0, 15, 30 (at the end of the infusion), 31, 35, 45, 60, 90, 150, 210, 270, 390, 510, and 630 min, with all sample collection and processing procedures identical to those described above.
as §1

[4] = Tissue distribution after intravenous administration in rats; assay type: in vivo; settings: Sprague-Dawley, rat; every tissue except brain, mesentery and fat; 30 min and 2 h after iv 10 mg/kg; read-out: Tissue-to-plasma (T/P) ratio
Experimental: Rats were handled and processed as described previously [10]. […] After 30 min and 2 h (n = 4 each), as much blood as possible was collected from the carotid artery. Blood samples were immediately centrifuged, and plasma was collected. The rats were sacrificed by cervical dislocation, approximately 1 g of each brain, fat, heart, kidney, large intestine, liver, lung, mesentery, muscle, small intestine, spleen, and stomach was removed, rinsed with phosphate-buffered solution (pH 7.4), and blotted dry with paper towels to remove any remaining blood. Each tissue sample was added to four volumes of homogenizing buffer, homogenized using a tissue homogenizer (T25 Ultra-Turrax, IKA Labortechnik, Staufen, Germany) and centrifuged at 8000 × g for 10 min.

[5] = 30-min intraportal infusion, 10 mg/kg (n = 6)
[6] = Sprague-Dawley, rat, plasma, 10 mg/kg, 30-min intraportal infusion, 10 mg/kg (n = 6)
[7] = Sprague-Dawley, rat, plasma, 10 mg/kg, intraduodenal instillation
[8] = Sprague-Dawley, rat, plasma, po, 10 mg/kg, intragastric instillation
[9] = Sprague-Dawley, rat, plasma, 30-min intraportal infusion, 10 mg/kg (n = 6)
[10] = 30-min intraportal infusion, 10 mg/kg (n = 7)
[11] = 30-min intravenous infusion, 10 mg/kg

C[C@@H]1CCN(C(=O)CC#N)C[C@@H]1N(C)c1ncnc2[nH]ccc12 [tofacitinib, 3-[(3R,4R)-4-methyl-3-[methyl-(7H-pyrrolo[2,3-day]pyrimidin-4-l)amino]piperidin-1-yl]-3-oxopropanenitril]
AUC after intraduodenal instillation as % of that after intraportal administration ([1]; 10 mg/kg): 50.7%
Ae0–24 h [1, 5]: 5.82 ± 2.32 % of dose
CLNR [1, 5]: 38.3 ± 6.16 mL/min/kg
Oral dose absorbed into the systemic circulation ([1]; 50.7–21.3%, 10 mg/kg): 29.4%
CL renal [1, 6]: 2.44 ± 1.23 mL/min/kg
Cmax [1, 6]: 5180 ± 586 ng/mL
Tmax [1, 6]: 27.5 min
AUC ([1]; Sprague-Dawley, rat, plasma, 10 mg/kg, 30-min intraportal infusion, 10 mg/kg (n = 6), fasted): 4530 ng·h/mL
AUC [1, 7]: 2300 ng·h/mL
CL renal [1, 7]: 5.72 ± 2.62 mL/min/kg
Cmax [1, 7]: 1550 ± 1930 ng/mL
Tmax [1, 7]: 38.8 min
AUC [1, 8]: 2230 ng·h/mL
CL renal [1, 8]: 7.08 ± 2.91 mL/min/kg
Cmax [1, 8]: 716 ± 255 ng/mL
Tmax [1, 8]: 63.8 min
MRT [1, 9]: 53 min
clearance [1, 9]: 38.4 ± 8.47 mL/min/kg
half-life ([1]; Sprague-Dawley, rat, plasma, 30-min intraportal infusion, 10 mg/kg (n = 6), read-out: Terminal half-life): 44.8 ± 14.2 min
Vd ([1]; Sprague-Dawley, rat, plasma, 30-min intraportal infusion, 10 mg/kg (n = 6), read-out: Vss): 1.9 ± 0.369 L/kg
Ae0–24 h ([1]; intraduodenal instillation, 10 mg/kg): 8.30 ± 5.10 % of dose
Ae0–24 h ([1]; intragastric instillation, 10 mg/kg): 8.90 ± 3.00 % of dose
Time to detection in plasma after oral administration ([2]; all four oral doses): ≤ 5 min
Ae0–24 h ([2]; all oral doses): less than 17.2%
F in rats ([2]; based on calculations using the same intravenous and oral doses): 29.1–33.8%
CL renal ([2]; oral 10 mg/kg): 11.6 ± 2.87 mL/min/kg
CL renal ([2]; oral 20 mg/kg): 6.97 ± 3.95 mL/min/kg
CL renal ([2]; oral 50 mg/kg): 7.61 ± 2.82 mL/min/kg
CL renal ([2]; oral 100 mg/kg): 3.37 ± 2.52 mL/min/kg
Cmax ([2]; oral 10 mg/kg): 1130 ± 774 ng/mL
Tmax ([2]; oral 10 mg/kg): 15.7 min
bioavailability ([2]; oral 10 mg/kg): 29.1%
Cmax ([2]; oral 20 mg/kg): 3130 ± 1270 ng/mL
Tmax ([2]; oral 20 mg/kg): 15.7 min
bioavailability ([2]; oral 20 mg/kg): 39.3%
Cmax ([2]; oral 50 mg/kg): 5620 ± 2180 ng/mL
Tmax ([2]; oral 50 mg/kg): 34.4 min
bioavailability ([2]; oral 50 mg/kg): 69.7%
Cmax ([2]; oral 100 mg/kg): 13100 ± 5480 ng/mL
Tmax ([2]; oral 100 mg/kg): 170 min
bioavailability ([2]; oral 100 mg/kg): 119%
Ae0–24 h ([2]; oral 10 mg/kg): 11.3 ± 4.60 % of dose
Orally administered dose absorbed from the gastrointestinal tract ([2]; oral 10 mg/kg): approximately 96.8%
Unabsorbed fraction (Funabs) ([2]; oral 10 mg/kg, at 24 h): 3.16%
Dose-normalized AUC ([2]; oral 10 mg/kg): 99.4 µg·min/mL and 99.4 ± 35.5 µg·min/mL
GI24 h (recovered unchanged from entire gastrointestinal tract at 24 h) ([2]; oral 10 mg/kg, 10 mg/kg): 3.16 % of dose and 3.16 ± 5.12 % of dose
Orally administered dose eliminated by first-pass metabolism ([2]; oral 10 mg/kg, 100% − (3.16% + 29.1%)): approximately 67.7%
Ae0–24 h ([2]; oral 20 mg/kg): 10.0 ± 6.51 % of dose
GI24 h (recovered unchanged from entire gastrointestinal tract at 24 h) ([2]; oral 20 mg/kg): 3.13 ± 3.27 % of dose
Dose-normalized AUC ([2]; oral 20 mg/kg): 135 µg·min/mL and 135 ± 26.9 µg·min/mL
Ae0–24 h ([2]; oral 50 mg/kg): 17.2 ± 3.98 % of dose
GI24 h (recovered unchanged from entire gastrointestinal tract at 24 h) ([2]; oral 50 mg/kg): 2.77 ± 3.96 % of dose
Dose-normalized AUC ([2]; oral 50 mg/kg): 238 µg·min/mL and 238 ± 56.0 µg·min/mL
Ae0–24 h ([2]; oral 100 mg/kg): 13.0± 9.47 % of dose
GI24 h (recovered unchanged from entire gastrointestinal tract at 24 h) ([2]; oral 100 mg/kg): 0.772± 0.905 % of dose
Dose-normalized AUC ([2]; oral 100 mg/kg): 407 µg·min/mL and 407 ± 179 µg·min/mL
Slope of plot of AUC versus dose ([2]; oral, dose and AUC ratios based on 10 mg/kg): 4.65
AUC ([2]; oral 10 mg/kg): 1660 ng·h/mL
AUC ([2]; oral 20 mg/kg): 4480 ng·h/mL
AUC ([2]; oral 50 mg/kg): 19900 ng·h/mL
AUC ([2]; oral 100 mg/kg): 67900 ng·h/mL
AUC after intraportal administration as % of that after intravenous administration ([3]; 10 mg/kg): 58.0%
CL faster after intraportal than intravenous administration ([3]; 10 mg/kg): 67%
CLNR faster after intraportal than intravenous administration ([3]; 10 mg/kg): 60%
Vss higher after intraportal than intravenous administration ([3]; 10 mg/kg): 50%
Ae0–24 h [3, 10]: 10.7 ± 9.42 % of dose
CLNR [3, 10]: 38.5 ± 10.4 mL/min/kg
Ae0–24 h [3, 11]: 12.5 ± 5.20 % of dose
CLNR [3, 11]: 24.0 ± 6.46 mL/min/kg
AUC [3, 10]: 4030 ng·h/mL
CL renal [3, 10]: 5 ± 4.69 mL/min/kg
MRT [3, 10]: 59.6 min
clearance [3, 10]: 43.8 ± 11 mL/min/kg
half-life [3, 10]: 42.4 ± 10.4 min
Vd [3, 10]: 2.55 ± 0.72 L/kg
AUC [3, 11]: 6950 ng·h/mL
CL renal [3, 11]: 2.34 ± 2.9 mL/min/kg
MRT [3, 11]: 67.5 min
clearance [3, 11]: 26.3 ± 8.85 mL/min/kg
half-life [3, 11]: 46.2 ± 12.5 min
Vd [3, 11]: 1.7 ± 0.737 L/kg
Kp [4]: > 1
